These are literature values, as cited in patent US20070232685A1, “CRYSTALLINE FORMS OF N-(BENZO[B]THIEN-3-YLMETHYL)-SULFAMIDE” (priority 2006, published 2007).

The data set deals with carbonic anhydrase. The following applies: background statement on a known anticonvulsant; no method given.

Structures are written as SMILES.

As for `CC1(C)O[C@@H]2[C@@H](CO[C@@]3(COS(N)(=O)=O)OC(C)(C)O[C@@H]23)O1` [Topiramate], the carbonic anhydrase inhibition entry was “single digit micromolar”.
